The test system of one assay is KURAMOCHI
Nature of the assay: drug sensitivity score (DSS2) on cancer cell count; higher = more sensitive; extreme values may be limits of the assay. To be noted: 72 h. The method in brief:
(§1)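 Screen quality was checked by Z', and a drug sensitivity score was derived in Breeze from logistic fits of the cancer cell counts. These counts were obtained by imaging at 10× (4 fields) after fixing and immunostaining for CK8/18 with Hoechst. Before that, ovarian cancer cells, alone or in 1:1 direct co-culture with lung or skin fibroblasts, had been treated for 72 h on 384-well plates acoustically pre-spotted with 528 approved and investigational compounds at 5 concentrations.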

The test system of a further assay is OVCAR8. Described as above. To be noted: 72 h. A digest of the protocol: as §1
[1] abbreviates: co-cultured fibroblast: BJHTERT.
Setting [2] is: co-cultured fibroblast: none (monoculture).

Take `OC[C@H]1O[C@@H](n2cnc3c2N=CNC[C@H]3O)C[C@@H]1O` [Pentostatin]: the drug sensitivity score with KURAMOCHI (setting [1]) was 0 DSS; in the assay with KURAMOCHI (co-cultured fibroblast: WI38), 0 DSS; in the assay with KURAMOCHI (setting [2]), 0 DSS; with OVCAR8 (setting [1]), 0 DSS; in the assay on OVCAR8 (co-cultured fibroblast: WI38), 2.8 DSS; with OVCAR8 (setting [2]), 0 DSS.

Take `Cn1c(Nc2ccc(C(F)(F)F)cc2)nc2cc(Oc3ccnc(-c4ncc(C(F)(F)F)[nH]4)c3)ccc21` [NVP-RAF265]: the drug sensitivity score in the assay on KURAMOCHI (setting [1]) is 2.2 DSS; with KURAMOCHI (co-cultured fibroblast: WI38), 0.8 DSS; in the assay on KURAMOCHI (setting [2]) it was 7.6 DSS; with OVCAR8 (setting [1]), 2.2 DSS; with OVCAR8 (co-cultured fibroblast: WI38) it was 0 DSS; with OVCAR8 (setting [2]), 3.2 DSS.

`CC(C)n1cnc2c(NCCc3ccc(O)cc3)nc(-c3csc4ccccc34)nc21` [StemRegenin 1]: the drug sensitivity score in the assay with KURAMOCHI (setting [1]) was 4.3 DSS; with KURAMOCHI (co-cultured fibroblast: WI38), 2.8 DSS; with KURAMOCHI (setting [2]) it was 1.7 DSS; in the assay on OVCAR8 (setting [1]), 2.8 DSS; in the assay on OVCAR8 (co-cultured fibroblast: WI38), 0 DSS; with OVCAR8 (setting [2]) it was 1 DSS.

For `Cc1ncc(-c2ccnc(Nc3ccc(S(C)(=O)=O)cc3)n2)n1C(C)C` [AZD-5438], the drug sensitivity score in the assay with KURAMOCHI (setting [1]) turned out to be 17.8 DSS; with KURAMOCHI (co-cultured fibroblast: WI38), 22.5 DSS; with KURAMOCHI (setting [2]), 17.7 DSS; with OVCAR8 (setting [1]) it was 19 DSS; in the assay with OVCAR8 (co-cultured fibroblast: WI38), 19.2 DSS; with OVCAR8 (setting [2]), 17.2 DSS.

`O=c1[nH]cc(F)c(=O)[nH]1` [Fluorouracil]: the drug sensitivity score was 2.3 DSS in the assay on KURAMOCHI (setting [1]); 5.4 DSS in the assay with KURAMOCHI (co-cultured fibroblast: WI38); 5 DSS in the assay with KURAMOCHI (setting [2]); 1.3 DSS in the assay with OVCAR8 (setting [1]); 1.4 DSS in the assay on OVCAR8 (co-cultured fibroblast: WI38); 5.5 DSS in the assay on OVCAR8 (setting [2]).

As for `Nc1ccccc1NC(=O)c1ccc(CNC(=O)OCc2cccnc2)cc1` [Entinostat], the drug sensitivity score with KURAMOCHI (setting [1]) was found to be 6 DSS; in the assay on KURAMOCHI (co-cultured fibroblast: WI38), 14.3 DSS; with KURAMOCHI (setting [2]), 9.2 DSS; in the assay on OVCAR8 (setting [1]), 8.5 DSS; in the assay with OVCAR8 (co-cultured fibroblast: WI38), 11.7 DSS; with OVCAR8 (setting [2]), 11.1 DSS.

These data come from the supplement of paper PMC12420376.
